From patent publication US9556109B1, “Triscationic amphiphile derivative compounds having a pendent alcohol group, compositions thereof, and methods for making same” (James Madison Innovations, Inc., priority 2015, dated 2017)
≈ marks a conversion by molar mass, not a printed value.

Columns and labels:
[1] = tested on: Pseudomonas aeruginosa biofilm; assay: Crystal Violet Biofilm Disruption Assay; type: cell-based; settings: for Max % disruption: over 250-2 μM
Method: A Crystal Violet Biofilm Disruption Assay was adapted from the techniques described in Bendouah, et al. 2006, Biofilm formation by Staphylococcus aureus and Pseudomonas aeruginosa is associated with an unfavorable evolution after surgery for chronic sinusitis and nasal polyposis, Otolaryngol. […] Bacteriol. 193 (20):5616-22. doi: 10.1128/JB.05534-11, which are incorporated by reference in their entirety. Applicants' adapted assay was performed as follows: • 1. Bacterial growth: […] (120 RPM in shaking incubator) for 24 hours • 2. Working stock: Overnight liquid culture diluted down to a bacterial concentration of approximately 5×10^6 CFU/mL in fresh LB • 3. Plate inoculation: Sterile 96-well microtiter plate inoculated with working stock: […] Plate covered with plastic cover, parafilm wrapped around edges; Incubate 24 hours at 37 degrees C. (stationary incubator) to establish biofilm • 4. Treatment: Row A and B: 100 μL sterile PBS (blank and negative control for disruption, respectively); […] Plate covered, wrapped with fresh parafilm, incubated at 37 degrees C. for 24 hours • 5. Staining and quantification: Plate rinsed twice with 1×PBS and allowed to dry; Wells stained with 100 μL 0.1% Crystal Violet dye for 15 minutes, excess rinsed off with gentle running dI water, allowed to dry; Stain dissolved in 100 μL 95% ethanol per well for 1 hour; Ethanol/CV solution transferred to fresh 96-well plate; Plate read at 570 nm on spectrophotometer plate reader; Values for rows C-H compared to row B (neg. control for disruption) to obtain % biofilm disruption at each concentration.

P. aeruginosa (G−) [2] = settings: comparison values of known antibiotics; cited from earlier work
[3] = Isothermal titration calorimetry: critical aggregation concentration and degree of ionization; type: physicochemical; settings: 37° C.; for CAC: ITC, pure water
Method: Isothermal titration calorimetry (ITC) was used to determine the critical aggregation concentration (CAC) and the degree of ionization at 37° C. associated with aggregate formation for each amphiphile for the M-E series, as shown in Table 1.
A Nano ITC was used to measure the heat change associated with the deaggregation of amphiphiles via power compensation. A concentrated aqueous solution of amphiphile (>>CAC) was titrated into a thermally controlled sample cell, initially containing pure water, in a series of discrete injections. Isothermal titration calorimetry was used to determine the critical aggregation concentration (CAC).
CAC and ΔHagg were determined using a Nano-ITC (TA-Instruments). Prior to each experiment the sample cell was washed with dH2O (300 mL), ethanol (100 mL), dH2O (300 mL) and nanopure water (200 mL). Next, 950 μL of nanopure water was added to the sample cell. A concentrated aqueous solution (>>CAC) of amphiphile was prepared and equilibrated at 37° C. A 250 μL syringe was filled with the aqueous solution, and loaded into the Nano ITC. Multiple single injections in aliquots of 5 μL were injected into the sample cell with time intervals varying from 300 s to 1400 s. Samples were continuously stirred (300 rpm) throughout the titration. The Nano-Analyze program (TA-Instruments) was used to analyze the data. CAC and ΔHagg values reported are the average of two or more repeat experiments for each amphiphile.

P. aeruginosa (G−) [4] = assay: Minimum inhibitory concentration (MIC), P. aeruginosa; type: cell-based, Pseudomonas aeruginosa
E. coli (G−) = assay: Minimum inhibitory concentration (MIC), E. coli; type: cell-based, Escherichia coli
S. aureus (G+) = assay: Minimum inhibitory concentration (MIC), S. aureus; type: cell-based, Staphylococcus aureus
E. faecalis (G+) = assay: Minimum inhibitory concentration (MIC), E. faecalis; type: cell-based, Enterococcus faecalis; settings: Experiment 2, Table 3
B. subtilis (G+) = type: cell-based; settings: Experiment 2, Table 3
S. agalactiae (G+) = assay: Minimum inhibitory concentration (MIC), S. agalactiae; type: cell-based, Streptococcus agalactiae; settings: Experiment 2, Table 3
B. anthracis (G+) = type: cell-based; settings: Experiment 2, Table 3
Pa1 (G−) = assay: Minimum inhibitory concentration (MIC), Pa1; settings: Experiment 1, Table 2
Pa2 (G−) = assay: Minimum inhibitory concentration (MIC), Pa2; settings: Experiment 1, Table 2
Gram-positive bacteria = assay: MIC, summary for Gram-positive bacteria; type: cell-based; settings: text summary over tested strains
Gram-negative bacteria = assay: MIC, summary for Gram-negative bacteria; type: cell-based; settings: text summary over tested strains

SMILES: NC[C@H]1O[C@H](O[C@H]2[C@H](O)[C@@H](O[C@H]3O[C@H](CO)[C@@H](O)[C@H](N)[C@H]3O)[C@H](N)C[C@@H]2N)[C@H](N)C[C@@H]1O [Tobramycin, reference compound]
- Min conc. >50% disruption [1]: 31 µM
- % disruption average ([1]; 2 μM): 6.808%
- % disruption trial 1 ([1]; 2 μM): 0%
- % disruption trial 2 ([1]; 2 μM): 13.62%
- % disruption average ([1]; 4 μM): 27.66%
- % disruption trial 1 ([1]; 4 μM): 0%
- % disruption trial 2 ([1]; 4 μM): 55.3151%
- % disruption average ([1]; 8 μM): 32.13%
- % disruption trial 1 ([1]; 8 μM): 15.46%
- % disruption trial 2 ([1]; 8 μM): 48.79%
- % disruption average ([1]; 16 μM): 13.9806%
- % disruption trial 1 ([1]; 16 μM): 0%
- % disruption trial 2 ([1]; 16 μM): 27.9612%
- % disruption average ([1]; 31 μM): 61.0098%
- % disruption trial 1 ([1]; 31 μM): 51.89%
- % disruption trial 2 ([1]; 31 μM): 70.13%
- % disruption average ([1]; 63 μM): 60.79%
- % disruption trial 1 ([1]; 63 μM): 53.5149%
- % disruption trial 2 ([1]; 63 μM): 68.07%
- % disruption average ([1]; 125 μM): 43.07%
- % disruption trial 1 ([1]; 125 μM): 34.88%
- % disruption trial 2 ([1]; 125 μM): 51.26%
- % disruption average ([1]; 250 μM): 3.803%
- % disruption trial 1 ([1]; 250 μM): 0%
- % disruption trial 2 ([1]; 250 μM): 7.607%
- Max % disruption [1]: 61%
- MIC against P. aeruginosa (P. aeruginosa (G−) [2]): 6.4 µM (≈ 2.99 µg/mL)

SMILES: CCCCCCCCCCCCCC[N+](C)(C)Cc1cc(C[N+](C)(C)CCO)cc(C[N+](C)(C)CCCCCCCCCCCCCC)c1.[Br-].[Br-].[Br-] [Compound 4]
- Degree of Ionization [3]: 0.18
- CAC [3]: 0.47 mM
- MIC P. aeruginosa (G−) (P. aeruginosa (G−) [4]; Experiment 1, Table 2): 125 µM
- MIC P. aeruginosa (G−) (P. aeruginosa (G−) [4]; Experiment 2, Table 3): 125 µM
- MIC E. coli (G−) (E. coli (G−); Experiment 1, Table 2): 8 µM
- MIC E. coli (G−) (E. coli (G−); Experiment 2, Table 3): 8 µM
- MIC S. aureus (G+) (S. aureus (G+); Experiment 1, Table 2): 8 µM
- MIC S. aureus (G+) (S. aureus (G+); Experiment 2, Table 3): 8 µM
- MIC E. faecalis (G+) (E. faecalis (G+)): 4 µM
- MIC B. subtilis (G+) (B. subtilis (G+)): 8 µM
- MIC S. agalactiae (G+) (S. agalactiae (G+)): 4 µM
- MIC B. anthracis (G+) (B. anthracis (G+)): 8 µM
- MIC Pa1 (G−) (Pa1 (G−)): 250 µM
- MIC Pa2 (G−) (Pa2 (G−)): 250 µM

SMILES: CCCCCCCCCC[N+](C)(C)Cc1cc(C[N+](C)(C)CCO)cc(C[N+](C)(C)CCCCCCCCCC)c1.[Br-].[Br-].[Br-] [Compound 2]
- Degree of Ionization [3]: 0.24
- CAC [3]: 9.5 mM
- MIC P. aeruginosa (G−) (P. aeruginosa (G−) [4]; Experiment 2, Table 3): 250 µM
- MIC E. coli (G−) (E. coli (G−); Experiment 2, Table 3): 125 µM
- MIC S. aureus (G+) (S. aureus (G+); Experiment 2, Table 3): 125 µM
- MIC E. faecalis (G+) (E. faecalis (G+)): 4 µM
- MIC B. subtilis (G+) (B. subtilis (G+)): 16 µM
- MIC S. agalactiae (G+) (S. agalactiae (G+)): 4 µM
- MIC B. anthracis (G+) (B. anthracis (G+)): 4 µM

SMILES: CCCCCCCCCCCCCCCC[N+](C)(C)Cc1cc(C[N+](C)(C)CCO)cc(C[N+](C)(C)CCCCCCCCCCCCCCCC)c1.[Br-].[Br-].[Br-] [Compound 5]
- Degree of Ionization [3]: 0.15
- CAC [3]: 0.12 mM
- MIC P. aeruginosa (G−) (P. aeruginosa (G−) [4]; Experiment 1, Table 2): 125 µM
- MIC P. aeruginosa (G−) (P. aeruginosa (G−) [4]; Experiment 2, Table 3): 125 µM
- MIC E. coli (G−) (E. coli (G−); Experiment 1, Table 2): 63 µM
- MIC E. coli (G−) (E. coli (G−); Experiment 2, Table 3): 63 µM
- MIC S. aureus (G+) (S. aureus (G+); Experiment 1, Table 2): 63 µM
- MIC S. aureus (G+) (S. aureus (G+); Experiment 2, Table 3): 63 µM
- MIC E. faecalis (G+) (E. faecalis (G+)): 63 µM
- MIC B. subtilis (G+) (B. subtilis (G+)): >250 µM
- MIC S. agalactiae (G+) (S. agalactiae (G+)): >250 µM
- MIC B. anthracis (G+) (B. anthracis (G+)): >250 µM
- MIC Pa1 (G−) (Pa1 (G−)): >250 µM
- MIC Pa2 (G−) (Pa2 (G−)): >250 µM

SMILES: CCCCCCCCCCCC[N+](C)(C)Cc1cc(C[N+](C)(C)CCO)cc(C[N+](C)(C)CCCCCCCCCCCC)c1.[Br-].[Br-].[Br-] [Compound 3]
- Degree of Ionization [3]: 0.20
- CAC [3]: 1.9 mM
- MIC P. aeruginosa (G−) (P. aeruginosa (G−) [4]; Experiment 1, Table 2): 8 µM
- MIC P. aeruginosa (G−) (P. aeruginosa (G−) [4]; Experiment 2, Table 3): 8 µM
- MIC E. coli (G−) (E. coli (G−); Experiment 1, Table 2): 4 µM
- MIC E. coli (G−) (E. coli (G−); Experiment 2, Table 3): 4 µM
- MIC S. aureus (G+) (S. aureus (G+); Experiment 1, Table 2): 4 µM
- MIC S. aureus (G+) (S. aureus (G+); Experiment 2, Table 3): 4 µM
- MIC E. faecalis (G+) (E. faecalis (G+)): 2 µM
- MIC B. subtilis (G+) (B. subtilis (G+)): 4 µM
- MIC S. agalactiae (G+) (S. agalactiae (G+)): 2 µM
- MIC B. anthracis (G+) (B. anthracis (G+)): 2 µM
- Min conc. >50% disruption [1]: 63 µM
- % disruption average ([1]; 2 μM): 0%
- % disruption trial 1 ([1]; 2 μM): 0%
- % disruption trial 2 ([1]; 2 μM): 0%
- % disruption average ([1]; 4 μM): 5.12%
- % disruption trial 1 ([1]; 4 μM): 1.759%
- % disruption trial 2 ([1]; 4 μM): 8.481%
- % disruption average ([1]; 8 μM): 13.44%
- % disruption trial 1 ([1]; 8 μM): 24.06%
- % disruption trial 2 ([1]; 8 μM): 2.817%
- % disruption average ([1]; 16 μM): 30.79%
- % disruption trial 1 ([1]; 16 μM): 47.34%
- % disruption trial 2 ([1]; 16 μM): 14.23%
- % disruption average ([1]; 31 μM): 46.0133%
- % disruption trial 1 ([1]; 31 μM): 61.1%
- % disruption trial 2 ([1]; 31 μM): 30.93%
- % disruption average ([1]; 63 μM): 68.14%
- % disruption trial 1 ([1]; 63 μM): 72.05%
- % disruption trial 2 ([1]; 63 μM): 64.22%
- % disruption average ([1]; 125 μM): 65.66%
- % disruption trial 1 ([1]; 125 μM): 65.04%
- % disruption trial 2 ([1]; 125 μM): 66.29%
- % disruption average ([1]; 250 μM): 66.48%
- % disruption trial 1 ([1]; 250 μM): 67.34%
- % disruption trial 2 ([1]; 250 μM): 65.61%
- Max % disruption [1]: 68%
- MIC for Gram-positive bacteria (Gram-positive bacteria): 4 µM
- MIC for Gram-negative bacteria (Gram-negative bacteria): 4 to 8 µM
- MIC Pa1 (G−) (Pa1 (G−)): 8 µM
- MIC Pa2 (G−) (Pa2 (G−)): 8 µM

SMILES: CCCCCCCC[N+](C)(C)Cc1cc(C[N+](C)(C)CCO)cc(C[N+](C)(C)CCCCCCCC)c1.[Br-].[Br-].[Br-] [Compound 1]
- MIC P. aeruginosa (G−) (P. aeruginosa (G−) [4]; Experiment 2, Table 3): >250 µM
- MIC E. coli (G−) (E. coli (G−); Experiment 2, Table 3): >250 µM
- MIC S. aureus (G+) (S. aureus (G+); Experiment 2, Table 3): 250 µM
- MIC E. faecalis (G+) (E. faecalis (G+)): 63 µM
- MIC B. subtilis (G+) (B. subtilis (G+)): 250 µM
- MIC S. agalactiae (G+) (S. agalactiae (G+)): 125 µM
- MIC B. anthracis (G+) (B. anthracis (G+)): 63 µM

SMILES: CO/N=C(\C(=O)N[C@@H]1C(=O)N2C(C(=O)[O-])=C(C[N+]3(C)CCCC3)CS[C@H]12)c1csc(N)n1 [cefepime]
- MIC against P. aeruginosa (P. aeruginosa (G−) [2]): 12.5 µM (≈ 6.01 µg/mL)
